Test results taken from patent US7407775B2, “Method for identifying Listeria monocytogenes and culture medium” (Biomerieux S.A., priority 2000, dated 2008).

Key:
Assay in all cases: Experiment 1: esterase substrates, same chromogenic marker, fatty acids of different chain lengths
Format in all cases: cell-based
Set-up in all cases: key: —: the symbol “-” corresponds to the absence of color or intensity; 0 corresponds to no activity; 0.1 corresponds to a trace of color; 0.5 corresponds to very pale coloration; 1 corresponds to clear but low-intensity coloration; 1.5 corresponds to a degree of coloration intermediate between scores 1 and 2; 2 corresponds to clear coloration of moderate intensity; 2.5 corresponds to a degree of coloration intermediate between scores 2 and 3; 3 corresponds to intense coloration; 3.5 corresponds to a degree of coloration intermediate between scores 3 and 4; 4 corresponds to very intense coloration
Conditions in all cases: 37° C., substrate 250 mg/l
Listeria ivanovii 018 = system: Listeria ivanovii 018
Description: (§1) A stock solution of each substrate at a concentration of 40 g/l was made up in a mixture of 40% Dimethylsulfoxide and 60% Polyoxyethylenesorbitan Monolaurate (Tween 20). An appropriate volume was added to three Columbia-type media while cooling to give a final substrate concentration of 250 mg/l. These dishes were divided into three areas and then each area was inoculated with a suspension (density=0.5 McFarland) of microorganisms taken from either the Applicant's own collection or the ATCC. The dishes were incubated for 48 hours at 37° C. The colonies which grew were examined by eye after 24 and 48 hours of incubation. Both the color and the intensity of the color of the colonies were recorded.
(§2) In Table 1 above, as in the following Tables, C represents the color of the colonies after incubation, I represents the intensity of the color, and the symbol “-” corresponds to the absence of color or intensity; finally, IT defines the incubation time. It should be noted that the intensity of the color is scored on an arbitrary scale but one which is consistent for all the biological specimens and media tested. This scale is valid for this experiment as well as all those that follow. It can be defined in the following way: • 0 corresponds to no activity, • 0.1 corresponds to a trace of color, • 0.5 corresponds to very pale coloration, • 1 corresponds to clear but low-intensity coloration, • 1.5 corresponds to a degree of coloration intermediate between scores 1 and 2, • 2 corresponds to clear coloration of moderate intensity, • 2.5 corresponds to a degree of coloration intermediate between scores 2 and 3, • 3 corresponds to intense coloration, • 3.5 corresponds to a degree of coloration intermediate between scores 3 and 4, • 4 corresponds to very intense coloration.

Listeria innocua 166 = system: Listeria innocua 166
Description: as §1, §2

Listeria innocua 171 = system: Listeria innocua 171
Description: as §1, §2

Listeria ivanovii 025 = system: Listeria ivanovii 025
Description: as §1, §2

Listeria welshimeri 078 = system: Listeria welshimeri 078
Description: as §1, §2

[1] = system: Listeria innocua ATCC 33090
Description: as §1, §2

Listeria seeligeri 011 = system: Listeria seeligeri 011
Description: as §1, §2

CCCCCCCCCC(=O)Oc1c[nH]c2ccc(Br)cc12 [Blue-C10, 5-Bromo-3-indolyl decanoate]
gray: C (color of the colonies) (Listeria innocua 166; IT 48 h) | C (color of the colonies) (Listeria innocua 171; IT 48 h) | C (color of the colonies) (Listeria welshimeri 078; IT 48 h) | C (color of the colonies) ([1]; IT 48 h) | C (color of the colonies) (Listeria seeligeri 011; IT 48 h)
0.3: I (intensity of the color) (Listeria innocua 171; IT 48 h) | I (intensity of the color) ([1]; IT 48 h)
0.5: I (intensity of the color) (Listeria innocua 166; IT 48 h) | I (intensity of the color) (Listeria welshimeri 078; IT 48 h) | I (intensity of the color) (Listeria seeligeri 011; IT 48 h)
—: C (color of the colonies) (Listeria ivanovii 018; IT 24 h) | I (intensity of the color) (Listeria ivanovii 018; IT 24 h) | C (color of the colonies) (Listeria ivanovii 018; IT 48 h) | I (intensity of the color) (Listeria ivanovii 018; IT 48 h) | C (color of the colonies) (Listeria innocua 166; IT 24 h) | I (intensity of the color) (Listeria innocua 166; IT 24 h) | C (color of the colonies) (Listeria innocua 171; IT 24 h) | I (intensity of the color) (Listeria innocua 171; IT 24 h) | C (color of the colonies) (Listeria ivanovii 025; IT 24 h) | I (intensity of the color) (Listeria ivanovii 025; IT 24 h) | C (color of the colonies) (Listeria ivanovii 025; IT 48 h) | I (intensity of the color) (Listeria ivanovii 025; IT 48 h) | C (color of the colonies) (Listeria welshimeri 078; IT 24 h) | I (intensity of the color) (Listeria welshimeri 078; IT 24 h) | C (color of the colonies) ([1]; IT 24 h) | I (intensity of the color) ([1]; IT 24 h) | C (color of the colonies) (Listeria seeligeri 011; IT 24 h) | I (intensity of the color) (Listeria seeligeri 011; IT 24 h)

CCCCCCCC(=O)Oc1c[nH]c2ccc(Br)cc12 [Blue-C8, 5-Bromo-3-indolyl octanoate]
0.3: I (intensity of the color) (Listeria innocua 166; IT 24 h) | I (intensity of the color) (Listeria innocua 171; IT 48 h) | I (intensity of the color) ([1]; IT 24 h)
1: I (intensity of the color) (Listeria innocua 166; IT 48 h) | I (intensity of the color) (Listeria welshimeri 078; IT 48 h)
—: C (color of the colonies) (Listeria ivanovii 018; IT 24 h) | I (intensity of the color) (Listeria ivanovii 018; IT 24 h) | C (color of the colonies) (Listeria ivanovii 018; IT 48 h) | I (intensity of the color) (Listeria ivanovii 018; IT 48 h) | C (color of the colonies) (Listeria innocua 171; IT 24 h) | I (intensity of the color) (Listeria innocua 171; IT 24 h) | C (color of the colonies) (Listeria ivanovii 025; IT 24 h) | I (intensity of the color) (Listeria ivanovii 025; IT 24 h) | C (color of the colonies) (Listeria ivanovii 025; IT 48 h) | I (intensity of the color) (Listeria ivanovii 025; IT 48 h) | C (color of the colonies) (Listeria seeligeri 011; IT 24 h) | I (intensity of the color) (Listeria seeligeri 011; IT 24 h)
gray: C (color of the colonies) (Listeria innocua 166; IT 24 h) | C (color of the colonies) (Listeria innocua 166; IT 48 h) | C (color of the colonies) (Listeria innocua 171; IT 48 h) | C (color of the colonies) (Listeria welshimeri 078; IT 24 h) | C (color of the colonies) (Listeria welshimeri 078; IT 48 h) | C (color of the colonies) ([1]; IT 24 h) | C (color of the colonies) ([1]; IT 48 h) | C (color of the colonies) (Listeria seeligeri 011; IT 48 h)
0.5: I (intensity of the color) (Listeria welshimeri 078; IT 24 h) | I (intensity of the color) ([1]; IT 48 h) | I (intensity of the color) (Listeria seeligeri 011; IT 48 h)

CCCCCCCCC(=O)Oc1c[nH]c2ccc(Br)cc12 [Blue-C9, 5-Bromo-3-indolyl nonanoate]
0.5: I (intensity of the color) (Listeria innocua 166; IT 48 h) | I (intensity of the color) (Listeria welshimeri 078; IT 24 h) | I (intensity of the color) (Listeria seeligeri 011; IT 48 h)
1: I (intensity of the color) (Listeria welshimeri 078; IT 48 h)
gray: C (color of the colonies) (Listeria innocua 166; IT 48 h) | C (color of the colonies) (Listeria innocua 171; IT 48 h) | C (color of the colonies) (Listeria welshimeri 078; IT 24 h) | C (color of the colonies) (Listeria welshimeri 078; IT 48 h) | C (color of the colonies) ([1]; IT 48 h) | C (color of the colonies) (Listeria seeligeri 011; IT 48 h)
—: C (color of the colonies) (Listeria ivanovii 018; IT 24 h) | I (intensity of the color) (Listeria ivanovii 018; IT 24 h) | C (color of the colonies) (Listeria ivanovii 018; IT 48 h) | I (intensity of the color) (Listeria ivanovii 018; IT 48 h) | C (color of the colonies) (Listeria innocua 166; IT 24 h) | I (intensity of the color) (Listeria innocua 166; IT 24 h) | C (color of the colonies) (Listeria innocua 171; IT 24 h) | I (intensity of the color) (Listeria innocua 171; IT 24 h) | C (color of the colonies) (Listeria ivanovii 025; IT 24 h) | I (intensity of the color) (Listeria ivanovii 025; IT 24 h) | C (color of the colonies) (Listeria ivanovii 025; IT 48 h) | I (intensity of the color) (Listeria ivanovii 025; IT 48 h) | C (color of the colonies) ([1]; IT 24 h) | I (intensity of the color) ([1]; IT 24 h) | C (color of the colonies) (Listeria seeligeri 011; IT 24 h) | I (intensity of the color) (Listeria seeligeri 011; IT 24 h)
0.3: I (intensity of the color) (Listeria innocua 171; IT 48 h) | I (intensity of the color) ([1]; IT 48 h)
